In brackets after ≈: the same amount, converted by molar mass. Activity calls are given as the source filed them. The rule behind the calls is not given here.
Columns and labels:
Staphylococcus aureus [1] = test: Antibacterial activity against Staphylococcus aureus MTCC 3160 after 24 hrs by agar diffusion assay; assay type: functional
Escherichia coli [2] = test: Antibacterial activity against Escherichia coli MTCC 51 after 24 hrs by agar diffusion assay; assay type: functional
Bacillus subtilis [3] = test: Antibacterial activity against Bacillus subtilis MTCC 121 after 24 hrs by agar dilution assay; assay type: functional; conditions: MTCC 121, 24 h
Salmonella typhi [4] = test: Antibacterial activity against Salmonella typhi MTCC 733 after 24 hrs by agar diffusion assay; assay type: functional, Salmonella enterica subsp. enterica serovar Typhi
Staphylococcus aureus [5] = test: Antibacterial activity against Staphylococcus aureus MTCC 3160 after 24 hrs by agar dilution assay; assay type: functional; conditions: MTCC 3160, 24 h
Salmonella typhi [6] = test: Antibacterial activity against Salmonella typhi MTCC 733 after 24 hrs by agar dilution assay; assay type: functional, Salmonella enterica subsp. enterica serovar Typhi; conditions: Salmonella enterica, MTCC 733, 24 h
[7] = test system: Staphylococcus epidermidis; test: Antibacterial activity against Staphylococcus epidermidis MTCC 2639 after 24 hrs by agar diffusion assay; assay type: functional
Escherichia coli [8] = test: Antibacterial activity against Escherichia coli MTCC 51 after 24 hrs by agar dilution assay; assay type: functional; conditions: MTCC 51, 24 h
[9] = test system: Staphylococcus epidermidis; test: Antibacterial activity against Staphylococcus epidermidis MTCC 2639 after 24 hrs by agar dilution assay; assay type: functional; conditions: MTCC 2639, 24 h
Bacillus subtilis [10] = test: Antibacterial activity against Bacillus subtilis MTCC 121 after 24 hrs by agar diffusion assay; assay type: functional

SMILES	Activity (Staphylococcus aureus [1])	Activity (Escherichia coli [2])	MIC (Bacillus subtilis [3]) [µg/mL]	inhibition zone (IZ) (Salmonella typhi [4]) [mm]	MIC (Staphylococcus aureus [5]) [µg/mL]	MIC (Salmonella typhi [6]) [µg/mL]	Activity [7]	MIC (Escherichia coli [8]) [µg/mL]	MIC [9] [µg/mL]	Activity (Bacillus subtilis [10])	inhibition zone (IZ) (Staphylococcus aureus [1]) [mm]	inhibition zone (IZ) (Escherichia coli [2]) [mm]	inhibition zone (IZ) [7] [mm]	inhibition zone (IZ) (Bacillus subtilis [10]) [mm]	Activity (Salmonella typhi [4]; Salmonella enterica subsp. enterica serovar Typhi)
Brc1ccc(-c2nnc3n2ccc2nnc(-c4ccc(Br)cc4)n23)cc1	inactive	inactive	> 64	15	> 64	32 (≈ 68.1 µM)	inactive	> 64	> 64	inactive	–	–	–	–	–
CC(=O)NC[C@H]1CN(c2ccc(N3CCOCC3)c(F)c2)C(=O)O1 [LINEZOLID]	–	–	2 (≈ 5.93 µM)	–	–	2 (≈ 5.93 µM)	–	8 (≈ 23.7 µM)	8 (≈ 23.7 µM)	–	–	–	–	–	–
c1coc(-c2nnc3n2ccc2nnc(-c4ccco4)n23)c1	–	–	8 (≈ 27.4 µM)	10	0.5 (≈ 1.71 µM)	64 (≈ 219 µM)	–	64 (≈ 219 µM)	64 (≈ 219 µM)	–	40	10	10	20	–
COc1ccc(-c2nnc3n2ccc2nnc(-c4ccc(OC)cc4)n23)cc1	–	inactive	64 (≈ 172 µM)	10	64 (≈ 172 µM)	64 (≈ 172 µM)	inactive	> 64	> 64	–	10.83	–	–	10	–
Clc1ccc(-c2nnc3n2ccc2nnc(-c4ccc(Cl)cc4)n23)cc1	–	inactive	8 (≈ 21 µM)	20	32 (≈ 83.9 µM)	8 (≈ 21 µM)	inactive	> 64	> 64	–	15	–	–	20	–
Cc1ccc(-c2nnc3n2ccc2nnc(-c4ccc(C)cc4)n23)cc1	inactive	inactive	8 (≈ 23.5 µM)	–	> 64	> 64	inactive	> 64	> 64	–	–	–	–	20.83	inactive
Fc1ccc(-c2nnc3n2ccc2nnc(-c4ccc(F)cc4)n23)cc1	–	inactive	2 (≈ 5.74 µM)	10	4 (≈ 11.5 µM)	64 (≈ 184 µM)	–	4 (≈ 11.5 µM)	4 (≈ 11.5 µM)	–	24.83	–	25	25	–
COc1ccc(OC)c(-c2nnc3n2ccc2nnc(-c4cc(OC)ccc4OC)n23)c1	–	inactive	32 (≈ 74 µM)	20	8 (≈ 18.5 µM)	8 (≈ 18.5 µM)	–	> 64	8 (≈ 18.5 µM)	–	20.16	–	20	15.16	–
O=[N+]([O-])c1ccc(-c2nnc3n2ccc2nnc(-c4ccc([N+](=O)[O-])cc4)n23)cc1	–	–	1 (≈ 2.49 µM)	30	1 (≈ 2.49 µM)	1 (≈ 2.49 µM)	–	2 (≈ 4.97 µM)	2 (≈ 4.97 µM)	–	30	25	25.16	30	–
O=[N+]([O-])c1ccc(-c2nnc3n2ccc2nnc(-c4ccc([N+](=O)[O-])o4)n23)o1	–	–	0.5 (≈ 1.31 µM)	35.16	8 (≈ 20.9 µM)	1 (≈ 2.62 µM)	–	2 (≈ 5.23 µM)	1 (≈ 2.62 µM)	–	20.83	30	35	40	–
N[C@@H](C(=O)N[C@@H]1C(=O)N2C(C(=O)O)=C(Cl)CS[C@H]12)c1ccccc1 [CEFACLOR ANHYDROUS]	–	–	8 (≈ 21.8 µM)	–	4 (≈ 10.9 µM)	2 (≈ 5.44 µM)	–	4 (≈ 10.9 µM)	4 (≈ 10.9 µM)	–	–	–	–	–	–

From ChEMBL document CHEMBL1146362, “Organoiodine(III) mediated synthesis of 3,9-diaryl- and 3,9-difuryl-bis-1,2,4-triazolo[4,3-a][4,3-c]pyrimidines as antibacterial agents” (2007)
